Measured values published in patent publication US8309685B2 (Celgene Avilomics Research, Inc., priority 2007, dated 2012).
Read-outs that look alike come from different tables or passages of the source.

Legend:
[1] = system: HCV RNA replicon in cell line ET (luc-ubi-neo/ET), human Huh7 hepatoma; test: Luciferase Assay (Example 35), replicon-derived luciferase activity; format: cell-based; details: Hepatitis C virus, Huh-7, assay described in Example 35
Method: The compounds were assayed to evaluate the antiviral activity and cytotoxicity of compounds using replicon-derived luciferase activity. This assay used the cell line ET (luc-ubi-neo/ET), which is a human Huh7 hepatoma cell line that contains an HCV RNA replicon with a stable luciferase (Luc) reporter and cell culture-adaptive mutations. The ET cell line was grown in a 5% CO2 incubator at 37° C. in Dulbecco's modified essential media (DMEM) supplemented with 2 mM L-glutamine, nonessential amino acids, 100 U of penicillin/ml, 100 μg of streptomycin/mL, and 10% fetal bovine serum. G418 (Geneticin; Invitrogen) was added at a final concentration of 400 ug//mL.
All cell culture reagents were obtained from Invitrogen (Carlsbad). Cells were trypsinized (1% trypsin:EDTA) and plated out at 5×10^3 cells/well in white 96-well assay plates (Costar) dedicated to cell number (cytotoxicity) or antiviral activity assessments. Test compounds were added at six 3-fold concentrations each and the assay was run in DMEM, 5% FBS, 1% pen-strep, 1% glutamine, 1% non essential amino acid. Human interferon alpha-2b (PBL Biolabs, New Brunswick, N.J.) was included in each run as a positive control compound. Cells were processed 72 hr post test compound addition when the cells were still subconfluent. Antiviral activity was measured by analyzing replicon-derived luciferase activity using the Steady-Glo Luciferase Assay System (Promega, Madison, Wis.) according to manufacturer's instruction. The number of cells in each well was determined by Cell Titer Blue Assay (Promega). Compound profile was derived by calculating applicable EC50 (effective concentration inhibiting virus replication by 50%), EC90 (effective concentration inhibiting virus replication by 90%), IC50 (concentration decreasing cell viability by 50%) and SI50 (selective index: […]) values.

[2] = target: T1, R155K mutant of the HCV NS3/4A 1b protease enzyme (Hepatitis C virus genotype 1b, UniProt P26663, R1181K); test: HCV Protease FRET Assay (IC50_APP), R155K mutant; format: biochemical
T1 construct: 10× stocks of NS3/4A protease enzyme from Bioenza (Mountain View, Calif.); purchased Bioenza (Mountain View, Calif.)
Method: HCV Protease FRET Assay for WT and Mutated NS3/4A 1b Enzymes (IC50—APP).
The following protocol was used to generate “apparent” IC50 (IC50—APP) values as depicted in Table 6, below. […] 5 μL of each enzyme were added to Corning (#3575) 384-well, black, microtiter plates (Corning, N.Y.) after spotting a 0.5 μL volume of 50% DMSO and serially diluted compounds prepared in 50% DMSO. Protease reactions were immediately started after enzyme addition with the addition of 45 μL of the FRET substrate and monitored for 60-90 minutes at λex485/λem520 in a Synergy^4 plate reader from BioTek (Winooski, Vt.). At the conclusion of each assay, progress curves from each well were examined for linear reaction kinetics and fit statistics (R^2, 95% confidence intervals, absolute sum of squares).
The compound numbers correspond to the compound numbers in Table 3. […] ;

[3] = target: T2, D168A mutant of the HCV NS3/4A 1b protease enzyme (Hepatitis C virus genotype 1b, UniProt P26663, D1194A); test: HCV Protease FRET Assay (IC50_APP), D168A mutant; format: biochemical
T2 construct: 10× stocks of NS3/4A protease enzyme from Bioenza (Mountain View, Calif.); purchased Bioenza (Mountain View, Calif.)

[4] = target: T3, wild type HCV NS3/4A 1b protease enzyme (Hepatitis C virus genotype 1b, UniProt P26663); test: HCV Protease FRET Assay (IC50_APP), wild type; format: biochemical
T3 construct: 10× stocks of NS3/4A protease enzyme from Bioenza (Mountain View, Calif.); purchased Bioenza (Mountain View, Calif.)

[5] = system: HCV RNA replicon in cell line ET (luc-ubi-neo/ET), human Huh7 hepatoma; test: Method A: HCV RNA replicon antiviral assay (luciferase, ET cell line); format: cell-based, Hepatitis C virus; details: Hepatitis C virus, Huh-7, assay described in Example 22; for IC50: read-out: Replicon (IC50)
In short: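 ET replicon cells (Huh7 carrying luciferase-reporter HCV replicon) plated at 5×10^3 cells/well and exposed 72 hr to six 3-fold drug concentrations in DMEM/5% FBS. Replicon luciferase gave EC50/EC90; CytoTox-1 cell counts gave IC50 (viability); […]. Interferon alpha-2b served as positive control.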

[6] = target: T4, A156T mutant of the HCV NS3/4A 1b protease enzyme (Hepatitis C virus genotype 1b, UniProt P26663, A1182T); test: HCV Protease FRET Assay (IC50_APP), A156T mutant; format: biochemical; details: apparent IC50, A156T mutant; read-out: IC50_APP, HCV A156T
T4 construct: 10× stocks of NS3/4A protease enzyme from Bioenza (Mountain View, Calif.); purchased Bioenza (Mountain View, Calif.)

[7] = apparent IC50, R155K mutant; read-out: IC50_APP, HCV R155K
[8] = apparent IC50, D168A mutant; read-out: IC50_APP, HCV D168A
[9] = read-out: IC50_APP, WT, apparent IC50, wild type NS3/4A 1b

| SMILES | EC50 [1] [µM] | IC50 [2, 7] [µM] | IC50 [3, 8] [µM] | IC50 [4] [µM] | IC50 [4, 9] [µM] | EC90 [1] [µM] | IC50 ([2]; read-out: IC50_APP, HCV R155K; apparent IC50, R155K mutant) [µM] | IC50 ([3]; read-out: IC50_APP, HCV D168A; apparent IC50, D168A mutant) [µM] | IC90 [5] [µM] | IC50 [5] [µM] | IC50 [6] [µM] |
| --- | --- | --- | --- | --- | --- | --- | --- | --- | --- | --- | --- |
| C=C[C@@H]1C[C@]1(NC(=O)[C@@H]1C[C@@H](Oc2nccc3cc(OC)ccc23)CN1C(=O)[C@H](CCC(=O)/C=C/C1CCCC1)NC(=O)OC(C)(C)C)C(=O)NS(=O)(=O)C1CC1 [Compound I-141, tert-butyl-(S,E)-7-cyclopentyl-1-((2S,4R)-2-((1R,2S)-1-(cyclopropylsulfonylcarbamoyl)-2-vinylcyclopropylcarbamoyl)-4-(6-methoxyisoquinolin-1-yloxy)pyrrolidin-1-yl)-1,5-dioxohept-6-en-2-ylcarbamate] | < 0.01 | 0.01 to 0.1 | 0.1 to 1 | < 0.01 | – | – | – | – | – | – | – |
| C=C[C@@H]1C[C@]1(NC(=O)[C@@H]1C[C@@H](Oc2nccc3cc(OC)ccc23)CN1C(=O)[C@H](CC(=O)C=C(C)C)NC(=O)OC(C)(C)C)C(=O)NS(=O)(=O)C1CC1 [Compound I-129] | < 0.01 | 0.01 to 0.1 | 0.1 to 1 | – | < 0.01 | – | – | – | – | – | – |
| C=CC(=O)NC[C@H](NC(=O)OC(C)(C)C)C(=O)N1C[C@H](Oc2nccc3ccccc23)C[C@H]1C(=O)N[C@]1(C(=O)NS(=O)(=O)C2CC2)C[C@H]1C=C [Compound I-97, {1-(Acryloylamino-methyl)-2-[2-(1-cyclopropanesulfonylaminocarbonyl-2-vinyl-cyclopropylcarbamoyl)-4-(isoquinolin-1-yloxy)-pyrrolidin-1-yl]-2-oxo-ethyl}-carbamic acid tert-butyl ester] | 0.1 to 1 | – | – | – | < 0.01 | 0.1 to 1 | 0.1 to 1 | 0.1 to 1 | – | – | – |
| C=CCN(C[C@H](NC(=O)OC(C)(C)C)C(=O)N1C[C@H](Oc2nccc3cc(OC)ccc23)C[C@H]1C(=O)N[C@]1(C(=O)NS(=O)(=O)C2CC2)C[C@H]1C=C)C(=O)C=C [Compound I-99, {1-[(Acryloyl-allyl-amino)-methyl]-2-[2-(1-cyclopropanesulfonylaminocarbonyl-2-vinyl-cyclopropylcarbamoyl)-4-(6-methoxy-isoquinolin-1-yloxy)-pyrrolidin-1-yl]-2-oxo-ethyl}-carbamic acid tert-butyl ester] | 0.01 to 0.1 | 0.1 to 1 | 1 to 10 | – | < 0.01 | – | – | – | – | – | – |
| C=CC(=O)N[C@@H](C(=O)N1C[C@H](Oc2nccc3cc(OC)ccc23)C[C@H]1C(=O)N[C@]1(C(=O)NS(=O)(=O)C2CC2)C[C@H]1C=C)C(C)(C)O [Compound I-130] | 0.1 to 1 | – | 0.1 to 1 | – | 0.01 to 0.1 | – | – | – | – | – | – |
| C=CC(=O)NC[C@@H]1NC(=O)OCCC/C=C/c2ccc3ccnc(c3c2)O[C@@H]2C[C@@H](C(=O)N[C@]3(C(=O)NS(=O)(=O)C4CC4)C[C@H]3C=C)N(C2)C1=O [Compound I-77, (1R,2S)-N-1-cyclopropylsulfonylcarboxamido-2-vinylcyclopropyl (2R,4S,7S,14E)-7-acrylamidomethyl-2H-16,18-etheno-2,5-methano-11H-pyrido[2,3-k][1,10,3,6]dioxadiazacyclononadecine-4-ylcarboxamide] | – | 0.01 to 0.1 | 0.1 to 1 | < 0.01 | – | – | – | – | 0.01 to 0.1 | < 0.01 | 0.1 to 1 |
| C=CC(=O)N[C@H](C)C(=O)N1C[C@H](Oc2nccc3cc(OC)ccc23)C[C@H]1C(=O)N[C@]1(C(=O)NS(=O)(=O)C2CC2)C[C@H]1C=C [Compound I-100] | 0.01 to 0.1 | < 0.01 | 0.01 to 0.1 | – | < 0.01 | – | – | – | – | – | – |
| C=C[C@@H]1C[C@]1(NC(=O)[C@@H]1C[C@@H](Oc2nccc3cc(OC)ccc23)CN1C(=O)[C@@H](C)NC(=O)CC)C(=O)NS(=O)(=O)C1CC1 [I^R-100, (2S,4R)—N-((1R,2S)-1-(cyclopropylsulfonylcarbamoyl)-2-vinylcyclopropyl)-4-(6-methoxyisoquinolin-1-yloxy)-1-((R)-2-propionamidopropanoyl)pyrrolidine-2-carboxamide] | 1 to 10 | 1 to 10 | 1 to 10 | 0.1 to 1 | – | – | – | – | – | – | – |
| CC[C@@H]1C[C@]1(NC(=O)[C@@H]1C[C@@H](Oc2nccc3cc(OC)ccc23)CN1C(=O)[C@H](CCC(=O)C=C(C)C)NC(=O)OC(C)(C)C)C(=O)NS(=O)(=O)C1CC1 [Compound I-114] | 0.01 to 0.1 | 0.1 to 1 | – | – | < 0.01 | – | – | – | – | – | – |
| C=C(C)C(=O)C[C@H](NC(=O)OC(C)(C)C)C(=O)N1C[C@H](Oc2nccc3cc(OC)ccc23)C[C@H]1C(=O)N[C@]1(C(=O)NS(=O)(=O)C2CC2)C[C@H]1CC [Compound I-140] | 0.1 to 1 | < 0.01 | 0.01 to 0.1 | – | < 0.01 | – | – | – | – | – | – |
| C=C[C@@H]1C[C@]1(NC(=O)[C@@H]1C[C@@H](Oc2nccc3ccc(Br)cc23)CN1C(=O)[C@H](CCC(=O)/C(C)=C/C)NC(=O)OC(C)(C)C)C(=O)NS(=O)(=O)C1CC1 [Compound I-91, {1-[4-(7-Bromo-isoquinolin-1-yloxy)-2-(1-cyclopropanesulfonylaminocarbonyl-2-vinyl-cyclopropylcarbamoyl)-pyrrolidine-1-carbonyl]-5-methyl-4-oxo-hept-5-enyl}-carbamic acid tert-butyl ester] | 0.01 to 0.1 | 0.1 to 1 | 1 to 10 | – | < 0.01 | 0.1 to 1 | – | – | – | – | – |
| C=C[C@@H]1C[C@]1(NC(=O)[C@@H]1C[C@@H](Oc2nccc3cc(OC)ccc23)CN1C(=O)[C@H](CC(=O)C(=C)C)NC(=O)OC(C)(C)C)C(=O)NS(=O)(=O)C1CC1 [Compound I-132] | 0.1 to 1 | < 0.01 | < 0.01 | – | < 0.01 | – | – | – | – | – | – |
| C=C[C@@H]1C[C@]1(NC(=O)[C@@H]1C[C@@H](Oc2nccc3cc(OC)ccc23)CN1C(=O)[C@H](CCC(=O)/C=C\C(C)(C)C)NC(=O)OC(C)(C)C)C(=O)NS(=O)(=O)C1CC1 [Compound I-136] | < 0.01 | 0.1 to 1 | 0.1 to 1 | – | < 0.01 | – | – | – | – | – | – |
| C=C[C@@H]1C[C@]1(NC(=O)[C@@H]1C[C@@H](Oc2nccc3cc(OC)ccc23)CN1C(=O)[C@H](CCC(=O)C#Cc1ccccc1)NC(=O)OC(C)(C)C)C(=O)NS(=O)(=O)C1CC1 [Compound I-138] | 0.1 to 1 | < 0.01 | 0.01 to 0.1 | – | < 0.01 | – | – | – | – | – | – |
| C=CC(=O)N[C@@H](C(=O)N1C[C@H](Oc2nccc3cc(OC)ccc23)C[C@H]1C(=O)N[C@]1(C(=O)NS(=O)(=O)C2CC2)C[C@H]1C=C)C(C)C [Compound I-101] | 0.01 to 0.1 | 0.01 to 0.1 | 0.1 to 1 | – | < 0.01 | – | – | – | – | – | – |
| C=CC(=O)NC[C@H](NC(=O)OC1CCCC1)C(=O)N1C[C@H](Oc2nccc3ccc(-c4cccs4)cc23)C[C@H]1C(=O)N[C@]1(C(=O)NS(=O)(=O)C2CC2)C[C@H]1C=C [Compound I-88, Cyclopentyl-(S)-3-acrylamido-1-((2S,4R)-2-((1R,2S)-1-(cyclopropylsulfonylcarbamoyl)-2-vinylcyclopropylcarbamoyl)-4-(7-(thiophen-2-yl)isoquinolin-1-yloxy)pyrrolidin-1-yl)-1-oxopropan-2-ylcarbamate] | – | 1 to 10 | 0.1 to 1 | < 0.01 | – | – | – | – | 0.01 to 0.1 | < 0.01 | – |
